This is an account of results in ChEMBL document CHEMBL1641537, “Chalcone-based inhibitors against hypoxia-inducible factor 1--structure activity relationship studies” (Bioorg Med Chem Lett, 2011).

This assay in a line: Inhibition of cobalt chloride-induced HIF-1 activation expressed in mouse NIH3T3 cells after 8 hrs by luciferase reporter gene assay. Format: cell-based. As to conditions: NIH3T3, 8 h. For orientation: Reporter assays use an easily measured gene product as a stand-in for the process of interest.
In the case of `O=C(/C=C/c1ccccc1)c1ccc(F)cc1`, the concentration for half-maximal inhibition (IC50) was > 20 µM.

On to `O=C(/C=C/c1ccccc1O)c1ccccc1`, for which the half-maximal inhibitory concentration (IC50) is > 20 µM.

As to `COc1cc(O)c(C(=O)/C(C)=C/c2ccccc2)c(OC)c1`, the IC50 is > 20 µM.

For the molecule `COc1cc(O)c(C(=O)/C=C/c2ccccc2Br)c(OC)c1`, it took 11.6 µM to reach half-maximal inhibition (IC50).

As to `Cc1ccc(C(=O)/C=C/c2ccccc2)cc1`, the IC50 is > 20 µM.

Turning to `COc1cc(O)c(C(=O)/C=C/c2ccccc2C)c(OC)c1`, half-maximal inhibition (IC50) required 9.9 µM.

`COc1cc(O)c(C(=O)/C=C/c2cccc(Br)c2)c(OC)c1` returned an IC50 of 2.2 µM.

For the molecule `COc1cc(O)c(C(=O)/C=C/c2cccc(C)c2)c(OC)c1`, the IC50 was found to be 3.6 µM.

On to `COc1cc(O)c(C(=O)/C=C/c2ccc(F)cc2)c(OC)c1`, for which the IC50 was > 20 µM.

As to `O=C(/C=C/c1ccccc1)c1ccc(F)c(F)c1`, the IC50 was > 20 µM.

Regarding `O=C(/C=C/c1ccccc1)c1ccc(C(F)(F)F)cc1`, the IC50 is > 20 µM.

The molecule `CCCOc1ccc(/C=C/C(=O)c2c(O)cc(OC)cc2OC)cc1` showed an IC50 of 12 µM.

`COc1cc(O)c(C(=O)/C=C/c2ccc(Cl)cc2)c(OC)c1`: the IC50 is > 20 µM.

For `O=C(/C=C/c1ccc(O)cc1)c1ccccc1` [4-HYDROXYCHALCONE], the IC50 is > 20 µM.

On to `O=C(/C=C/c1ccc(O)c(O)c1)c1ccc(O)cc1O` [BUTEIN], for which the IC50 is > 20 µM.

Take `COc1cc(/C=C/C(=O)CC(=O)/C=C/c2ccc(O)c(OC)c2)ccc1O` [CURCUMIN]: half-maximal inhibition (IC50) required 9.6 µM.

`COc1ccc(/C=C/C(=O)c2c(O)cc(OC)cc2OC)cc1` [FLAVOKAWAIN A] showed an IC50 of 11 µM.

Regarding `COc1cc(O)c(C(=O)/C=C/c2ccccc2)c(OC)c1` [FLAVOKAWAIN B], 3.3 µM corresponded to half-maximal inhibition (IC50).

For `COc1cc(O)c(C(=O)/C=C/c2ccc(O)cc2)c(OC)c1` [FLAVOKAWAIN C], it took 3.1 µM to reach half-maximal inhibition (IC50).

For `CC(C)=CCc1c(O)cc(C(=O)[C@H]2[C@@H](c3c(O)ccc(C(=O)/C=C/c4ccc(O)cc4O)c3O)C=C(C)C[C@@H]2c2ccc(O)cc2O)cc1O` [KUWANON J], the IC50 is 4.1 µM.

`CC(C)=CCc1c(O)cc(C(=O)[C@H]2[C@@H](c3c(O)ccc(C(=O)/C=C/c4ccc(O)cc4)c3O)C=C(C)C[C@@H]2c2ccc(O)cc2O)cc1O` [KUWANON R] returned an IC50 of 3.2 µM. This IC50 and that of the molecule before are within 1.5-fold of each other.

The molecule `CC(C)=CCc1c(O)cc(C(=O)[C@H]2[C@@H](c3c(O)ccc(C(=O)/C=C/c4ccc(O)cc4)c3O)C=C(C)C[C@@H]2c2ccc(O)cc2)cc1O` [KUWANON V] yielded an IC50 of 8.3 µM.

As a reminder, the IC50 is the midpoint of a concentration-inhibition curve.
